Here are results for 10 compounds from patent publication US8063071B2 (GlaxoSmithKline, LLC, priority 2007, dated 2011).

Counter-ions that a name gives are not always drawn.

For assay [1], the target named is T1, Recombinant human IKKβ (residues 1-737) (Homo sapiens, UniProt O14920).
T1 construct: Recombinant human IKKβ (residues 1-737); GST (C); made in house
T1 sequence (O14920 1-737): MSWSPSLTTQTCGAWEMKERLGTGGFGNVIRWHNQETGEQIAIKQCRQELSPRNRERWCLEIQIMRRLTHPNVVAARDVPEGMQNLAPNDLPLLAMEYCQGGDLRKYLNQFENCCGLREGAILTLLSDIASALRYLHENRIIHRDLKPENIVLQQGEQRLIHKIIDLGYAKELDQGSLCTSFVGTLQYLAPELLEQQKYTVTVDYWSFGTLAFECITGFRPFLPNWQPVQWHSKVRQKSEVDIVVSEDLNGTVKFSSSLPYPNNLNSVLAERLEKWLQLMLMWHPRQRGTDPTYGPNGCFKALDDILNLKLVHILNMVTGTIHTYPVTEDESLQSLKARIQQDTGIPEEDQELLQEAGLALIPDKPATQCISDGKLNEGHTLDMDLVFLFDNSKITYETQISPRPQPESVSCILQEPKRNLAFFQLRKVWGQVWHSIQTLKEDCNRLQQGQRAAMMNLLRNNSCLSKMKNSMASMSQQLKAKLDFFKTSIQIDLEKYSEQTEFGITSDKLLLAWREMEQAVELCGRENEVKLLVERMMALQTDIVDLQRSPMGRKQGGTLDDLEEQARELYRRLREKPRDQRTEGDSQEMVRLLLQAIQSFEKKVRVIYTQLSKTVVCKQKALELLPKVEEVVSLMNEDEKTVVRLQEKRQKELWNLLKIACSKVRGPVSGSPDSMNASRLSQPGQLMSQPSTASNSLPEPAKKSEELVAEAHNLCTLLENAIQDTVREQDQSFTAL
The assay is described as follows: IKK2 assay (TR-FRET). Format: biochemical. To be noted: ATP 1 μM final, read-out: pIC50 against IKK2 (converted). The gist of the method: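 Baculovirus-expressed C-terminal GST-tagged IKKβ (0.5-5 nM final) in HEPES pH 7.4, MgCl2, CHAPS, DTT, BSA with 1.7% DMSO; 25 nM GST-IB substrate and 1 μM ATP, 15 min at room temperature. EDTA stop; phospho-Ser32/36 detected by Eu-antibody/APC-anti-GST TR-FRET, 665/620 nm ratio.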
On the technique in general: TR-FRET usually uses a lanthanide donor and a delayed reading to cut background.

Assay [2] deals with human monocyte stimulated cytokine production (TNF-α). The assay is described as follows: Monocyte assay (LPS-stimulated TNF-α production). Format: cell-based. The following applies: 24 h, 200 ng/mL LPS, TNF-α by ELISA. The gist of the method: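 Human CD14+ monocytes were purified from blood and plated at 1×10^6 cells/mL in RPMI 1640 with 10% FBS. Compound was added 30 min before stimulation with 200 ng/mL LPS (0.1% DMSO final), followed by 24 hrs at 37 C. Supernatant TNF-α was measured by ELISA, and viability by trypan blue exclusion.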
Background: In an ELISA, binding on a coated surface is turned into a signal by an enzyme label.

`CCS(=O)(=O)N1CCC(c2c[nH]c3c(C(N)=O)cc(-c4ccnc(NCC(C)C)c4)cc23)CC1` [Example 205, 3-[1-(ethylsulfonyl)-4-piperidinyl]-5-{2-[(2-methylpropyl)amino]-4-pyridinyl}-1H-indole-7-carboxamide trifluoroacetate]: the IC50 in assay [1] is no more than 10 µM; in assay [2] it was greater than 1 µM.
Taken in the same sequence, the figures for `CCS(=O)(=O)N1CCC(c2c[nH]c3c(C(N)=O)cc(-c4ccnc(NCC(C)(C)C)c4)cc23)CC1` [Example 206, 5-{2-[(2,2-dimethylpropyl)amino]-4-pyridinyl}-3-[1-(ethylsulfonyl)-4-piperidinyl]-1H-indole-7-carboxamide trifluoroacetate] were no more than 10 µM and greater than 1 µM.
Taken in the same sequence, the figures for `CCCNc1cc(-c2cc(C(N)=O)c3[nH]cc(C4CCN(S(=O)(=O)CC)CC4)c3c2)ccn1` [Example 207, 3-[1-(ethylsulfonyl)-4-piperidinyl]-5-[2-(propylamino)-4-pyridinyl]-1H-indole-7-carboxamide trifluoroacetate] were no more than 10 µM and greater than 1 µM.
Taken in the same sequence, the figures for `CCS(=O)(=O)N1CCC(c2c[nH]c3c(C(N)=O)cc(-c4cc(CNC)cs4)cc23)CC1` [Example 208, 3-[1-(ethylsulfonyl)-4-piperidinyl]-5-{4-[(methylamino)methyl]-2-thienyl}-1H-indole-7-carboxamide trifluoroacetate] were no more than 10 µM and no more than 1.5 µM.
`CCS(=O)(=O)N1CCC(c2c[nH]c3c(C(N)=O)cc(-c4cc(CN5CCCC5)cs4)cc23)CC1` [Example 209, 3-[1-(ethylsulfonyl)-4-piperidinyl]-5-[4-(1-pyrrolidinylmethyl)-2-thienyl]-1H-indole-7-carboxamide trifluoroacetate]: the IC50 in assay [1] was no more than 10 µM; in assay [2], no more than 1.5 µM.
Regarding `CCS(=O)(=O)N1CCC(c2c[nH]c3c(C(N)=O)cc(-c4cc(CNCC(C)C)cs4)cc23)CC1` [Example 210, 3-[1-(ethylsulfonyl)-4-piperidinyl]-5-(4-{[(2-methylpropyl)amino]methyl}-2-thienyl)-1H-indole-7-carboxamide trifluoroacetate], the IC50 in assay [1] was no more than 10 µM; in assay [2], no more than 1.5 µM.
Turning to `CCS(=O)(=O)N1CCC(c2c[nH]c3c(C(N)=O)cc(-c4cc(CN(C)C)cs4)cc23)CC1` [Example 211, 5-{4-[(dimethylamino)methyl]-2-thienyl}-3-[1-(ethylsulfonyl)-4-piperidinyl]-1H-indole-7-carboxamide trifluoroacetate], the IC50 is no more than 10 µM in assay [1] and no more than 1.5 µM in assay [2].
Consider `CCS(=O)(=O)N1CCC(c2c[nH]c3c(C(N)=O)cc(-c4csc([C@H](C)N5CCCC5)c4)cc23)CC1` [Example 212, 3-[1-(ethylsulfonyl)-4-piperidinyl]-5-{5-[(1S)-1-(1-pyrrolidinyl)ethyl]-3-thienyl}-1H-indole-7-carboxamide], for which the IC50 in assay [1] is no more than 10 µM; in assay [2], no more than 1.5 µM.
For `CCS(=O)(=O)N1CCC(c2c[nH]c3c(C(N)=O)cc(-c4csc([C@@H](C)N5CCCC5)c4)cc23)CC1` [Example 213, 3-[1-(ethylsulfonyl)-4-piperidinyl]-5-{5-[(1R)-1-(1-pyrrolidinyl)ethyl]-3-thienyl}-1H-indole-7-carboxamide], the values for the IC50 in assay [1] and in assay [2] were no more than 10 µM and no more than 1.5 µM, respectively.
Regarding `CCS(=O)(=O)N1CCC(c2c[nH]c3c(C(N)=O)cc(-c4cc(CNCCCOC)cs4)cc23)CC1` [Example 214, 3-[1-(ethylsulfonyl)-4-piperidinyl]-5-[4-({[3-(methyloxy)propyl]amino}methyl)-2-thienyl]-1H-indole-7-carboxamide trifluoroacetate], the IC50 in assay [1] is no more than 10 µM; in assay [2], no more than 1.5 µM.
